# Experimental data from US20230398130A1, “METHODS AND COMPOSITIONS FOR DIFFERENTIATING STEM CELLS” (Massachusetts Institute of Technology, priority 2020, published 2023).
# Key:
# [1] = tested on: ISC-enriched organoids; assay: Primary screen, 384-well 2.5-D organoid differentiation (ENR+CD, 6 days): carbachol-induced lysozyme secretion (LYZ.S); format: cell-based, murine; conditions: for Dose.FC.LYZ.S: FC vs plate median; for Dose.FC.LYZ.S (log 2 fold change): vs plate median
# Excerpt: (§1) High-throughput screening.
# [2] = tested on: ISC-enriched organoids; assay: Primary screen, 384-well 2.5-D organoid differentiation (ENR+CD, 6 days): basal lysozyme secretion (LYZ.NS); format: cell-based, murine; conditions: for Dose.FC.LYZ.NS: FC vs plate median; for Z.LYZ.NS: standard z score of FC; for Dose.FC.LYZ.NS (log 2 fold change): vs plate median
# Excerpt: as §1
# [3] = tested on: ISC-enriched organoids; assay: Primary screen, 384-well 2.5-D organoid differentiation (ENR+CD, 6 days, Target Selective Inhibitor Library, vs whole-plate median): ATP (CellTiter-Glo 3D, CTG); conditions: for Dose.FC.CTG: FC vs plate median; for Z.CTG: standard z score of FC; for Dose.FC.CTG (log 2 fold change): vs plate median
# [4] = primary screen, dose 0.08 uM, ENR+CD 6 days
# [5] = primary screen, dose 0.40 uM, ENR+CD 6 days
# [6] = primary screen, dose 2.00 uM, ENR+CD 6 days
# [7] = primary screen, dose 10.00 uM, ENR+CD 6 days
SMILES,"Dose.FC.LYZ.S (log 2 fold change) ([1]; Dose 0.08 uM, primary screen)","Dose.FC.LYZ.S (log 2 fold change) ([1]; Dose 0.40 uM, primary screen)","Dose.FC.LYZ.S (log 2 fold change) ([1]; Dose 2.00 uM, primary screen)","Dose.FC.LYZ.S (log 2 fold change) ([1]; Dose 10.00 uM, primary screen)","Z.LYZ.NS (standard z score) ([2]; Dose 0.08 uM, primary screen)","Dose.FC.LYZ.NS (log 2 fold change) ([2]; Dose 0.08 uM, primary screen)","Z.LYZ.NS (standard z score) ([2]; Dose 0.40 uM, primary screen)","Dose.FC.LYZ.NS (log 2 fold change) ([2]; Dose 0.40 uM, primary screen)","Z.LYZ.NS (standard z score) ([2]; Dose 2.00 uM, primary screen)","Dose.FC.LYZ.NS (log 2 fold change) ([2]; Dose 2.00 uM, primary screen)","Z.LYZ.NS (standard z score) ([2]; Dose 10.00 uM, primary screen)","Dose.FC.LYZ.NS (log 2 fold change) ([2]; Dose 10.00 uM, primary screen)","Z.CTG (standard z score) ([3]; Dose 0.08 uM, primary screen)","Dose.FC.CTG (log 2 fold change) ([3]; Dose 0.08 uM, primary screen)","Z.CTG (standard z score) ([3]; Dose 0.40 uM, primary screen)","Dose.FC.CTG (log 2 fold change) ([3]; Dose 0.40 uM, primary screen)","Z.CTG (standard z score) ([3]; Dose 2.00 uM, primary screen)","Dose.FC.CTG (log 2 fold change) ([3]; Dose 2.00 uM, primary screen)","Z.CTG (standard z score) ([3]; Dose 10.00 uM, primary screen)","Dose.FC.CTG (log 2 fold change) ([3]; Dose 10.00 uM, primary screen)",further results
Cc1cc2c(C(C)C)c(O)c(O)c(C=O)c2c(O)c1-c1c(C)cc2c(C(C)C)c(O)c(O)c(C=O)c2c1O [AT101],–,–,–,–,–,–,–,–,–,–,–,–,–,–,–,–,–,–,–,–,"Dose.FC.LYZ.S [1, 4]: 0.004 log 2 fold change; Dose.FC.LYZ.S [1, 5]: −0.013 log 2 fold change; Dose.FC.LYZ.S [1, 6]: −0.085 log 2 fold change; Dose.FC.LYZ.S [1, 7]: −0.061 log 2 fold change; Dose.FC.LYZ.NS [2, 4]: −0.049 log 2 fold change; Z.LYZ.NS ([2]; primary screen, dose 0.08 uM): −0.426; Dose.FC.LYZ.NS [2, 5]: −0.068 log 2 fold change; Z.LYZ.NS ([2]; primary screen, dose 0.40 uM): −0.592; Dose.FC.LYZ.NS [2, 6]: −0.036 log 2 fold change; Z.LYZ.NS ([2]; primary screen, dose 2.00 uM): −0.311; Dose.FC.LYZ.NS [2, 7]: −0.052 log 2 fold change; Z.LYZ.NS ([2]; primary screen, dose 10.00 uM): −0.452; Dose.FC.CTG [3, 4]: −0.198 log 2 fold change; Z.CTG ([3]; primary screen, dose 0.08 uM): −0.472; Dose.FC.CTG [3, 5]: 0.019 log 2 fold change; Z.CTG ([3]; primary screen, dose 0.40 uM): 0.044; Dose.FC.CTG [3, 6]: −0.216 log 2 fold change; Z.CTG ([3]; primary screen, dose 2.00 uM): −0.515; Dose.FC.CTG [3, 7]: −0.056 log 2 fold change; Z.CTG ([3]; primary screen, dose 10.00 uM): −0.133"
Nc1ncnc2n[nH]c(Nc3ccc(F)cc3)c12 [CGP57380],–,–,–,–,–,–,–,–,–,–,–,–,–,–,–,–,–,–,–,–,"Dose.FC.LYZ.S ([1]; Dose 0.08 uM, ENR+CD, 6 days): 0.096 log 2 fold change; Dose.FC.LYZ.S ([1]; Dose 0.40 uM, ENR+CD, 6 days): 0.054 log 2 fold change; Dose.FC.LYZ.S ([1]; Dose 2.00 uM, ENR+CD, 6 days): −0.095 log 2 fold change; Dose.FC.LYZ.S ([1]; Dose 10.00 uM, ENR+CD, 6 days): −0.088 log 2 fold change; Dose.FC.LYZ.NS ([2]; Dose 0.08 uM, ENR+CD, 6 days): 0.218 log 2 fold change; Z.LYZ.NS ([2]; Dose 0.08 uM): 1.900; Dose.FC.LYZ.NS ([2]; Dose 0.40 uM, ENR+CD, 6 days): −0.041 log 2 fold change; Z.LYZ.NS ([2]; Dose 0.40 uM): −0.354; Dose.FC.LYZ.NS ([2]; Dose 2.00 uM, ENR+CD, 6 days): −0.055 log 2 fold change; Z.LYZ.NS ([2]; Dose 2.00 uM): −0.477; Dose.FC.LYZ.NS ([2]; Dose 10.00 uM, ENR+CD, 6 days): −0.037 log 2 fold change; Z.LYZ.NS ([2]; Dose 10.00 uM): −0.321; Dose.FC.CTG ([3]; Dose 0.08 uM, ENR+CD, 6 days): 0.108 log 2 fold change; Z.CTG ([3]; Dose 0.08 uM): 0.258; Dose.FC.CTG ([3]; Dose 0.40 uM, ENR+CD, 6 days): −0.293 log 2 fold change; Z.CTG ([3]; Dose 0.40 uM): −0.700; Dose.FC.CTG ([3]; Dose 2.00 uM, ENR+CD, 6 days): −0.460 log 2 fold change; Z.CTG ([3]; Dose 2.00 uM): −1.098; Dose.FC.CTG ([3]; Dose 10.00 uM, ENR+CD, 6 days): 0.055 log 2 fold change; Z.CTG ([3]; Dose 10.00 uM): 0.132"
O=C1CC(=O)c2c(Cl)c(Cl)c(Cl)c(Cl)c21 [TCID],0.062,0.017,−0.066,−0.054,0.431,0.049,−0.155,−0.018,0.578,0.066,−0.159,−0.018,−0.325,−0.136,−0.017,−0.007,−0.517,−0.217,−0.545,−0.228,–
COc1c(C)c(C(=O)c2ccc(N)c(C(=O)[O-])c2)n2ccccc12.[Na+] [SSR128129E],0.086,0.122,0.023,−0.095,0.807,0.093,0.339,0.039,0.257,0.030,−0.850,−0.098,0.210,0.088,0.545,0.228,0.291,0.122,−0.063,−0.026,–
